Reference: patent publication US20030194749A1 (priority 2002, published 2003)
Like-named read-outs stand apart in the source and are kept apart here. Values belong to the compound of their own block, whether it stands above or below them.

Columns and labels:
[1] = molecular target: T1, ATM (Homo sapiens, UniProt Q13315); assay: Streptavidin-sepharose pull-down from nuclear extract, ATM; type: binding; conditions: HeLa nuclear extract; 150 μM wortmannin or 1 mM ATP
T1 construct: we used nuclear extract for our pull-down experiments; endogenous in cells
Method: (§1) For the competition with ATP, ATP was directly added to a final concentration of 1 mM ATP.
(§2) To determine which PIK-related kinases could be pulled-down with BW, we performed several affinity precipitations after incubation with BW concentrations ranging from 0.5-50 μM. As controls, we used the […] compound (negative) and nuclear extracts (positive). We probed a Western blot for the precipitation of ATR, ATM and DNA-PKcs and received a pattern of different sensibility that is related to the IC50s observed in vitro. DNA-PKcs is the most sensitive member to precipitation with BW of the PIK-related kinases we tested and can be precipitated at concentrations as low as 0.5 μM. ATM also seems to be more sensitive to precipitation than ATR, and starts to give a signal at 2 μM. ATR is the least sensitive kinase to precipitation tested, and starts to pull-down at 10 μM.
(§3) Therefore, we performed pull-down reactions with 30 μM biotin-wortmannin using HeLa nuclear extract. […] The proteins that were pull-down were analyzed via Western blot detecting DNA-PKcs, ATM and biotin-wortmannin.

[2] = molecular target: T2, DNA-PKcs (Homo sapiens, UniProt P78527); assay: Streptavidin-sepharose pull-down from nuclear extract, DNA-PKcs; type: binding; conditions: HeLa nuclear extract; 150 μM wortmannin or 1 mM ATP
T2 construct: we used nuclear extract for our pull-down experiments; endogenous in cells
Method: as §1, §2, §3

[3] = molecular target: PI 3-kinase; conditions: cited from earlier work; for fold less effective than wortmannin towards PI 3-kinase: relative to wortmannin
[4] = system: HEK 293T cells; assay: Capability to enter intact cells (protein labeling after cell incubation); type: cell-based, human; conditions: 50 μM, 45 min
Method: The media and the inhibitory compound were premixed to reduce toxicity and incubated on the cells for 45 min or 1 h.
After 45 min, the cells were harvested and then lysates were generated. 100 μg of protein was separated on a 5-12.5% gradient gel, transferred to PVDF membrane and either analyzed with α-wortmannin sera or with streptavidin HRP to detect biotin-wortmannin.

[5] = Stability in buffer systems by thin layer chromatography; type: physicochemical; conditions: most conditions tested (not 1 M Tris)
[6] = molecular target: T3, Flag-tagged ATR (Homo sapiens, UniProt Q13535); assay: ATR kinase assay (GST-RAD17 substrate); type: biochemical; conditions: 3-4 experiments, read from a graph
T3 construct: expressed in transfected cells
T3 sequence (Q13535 whole entry): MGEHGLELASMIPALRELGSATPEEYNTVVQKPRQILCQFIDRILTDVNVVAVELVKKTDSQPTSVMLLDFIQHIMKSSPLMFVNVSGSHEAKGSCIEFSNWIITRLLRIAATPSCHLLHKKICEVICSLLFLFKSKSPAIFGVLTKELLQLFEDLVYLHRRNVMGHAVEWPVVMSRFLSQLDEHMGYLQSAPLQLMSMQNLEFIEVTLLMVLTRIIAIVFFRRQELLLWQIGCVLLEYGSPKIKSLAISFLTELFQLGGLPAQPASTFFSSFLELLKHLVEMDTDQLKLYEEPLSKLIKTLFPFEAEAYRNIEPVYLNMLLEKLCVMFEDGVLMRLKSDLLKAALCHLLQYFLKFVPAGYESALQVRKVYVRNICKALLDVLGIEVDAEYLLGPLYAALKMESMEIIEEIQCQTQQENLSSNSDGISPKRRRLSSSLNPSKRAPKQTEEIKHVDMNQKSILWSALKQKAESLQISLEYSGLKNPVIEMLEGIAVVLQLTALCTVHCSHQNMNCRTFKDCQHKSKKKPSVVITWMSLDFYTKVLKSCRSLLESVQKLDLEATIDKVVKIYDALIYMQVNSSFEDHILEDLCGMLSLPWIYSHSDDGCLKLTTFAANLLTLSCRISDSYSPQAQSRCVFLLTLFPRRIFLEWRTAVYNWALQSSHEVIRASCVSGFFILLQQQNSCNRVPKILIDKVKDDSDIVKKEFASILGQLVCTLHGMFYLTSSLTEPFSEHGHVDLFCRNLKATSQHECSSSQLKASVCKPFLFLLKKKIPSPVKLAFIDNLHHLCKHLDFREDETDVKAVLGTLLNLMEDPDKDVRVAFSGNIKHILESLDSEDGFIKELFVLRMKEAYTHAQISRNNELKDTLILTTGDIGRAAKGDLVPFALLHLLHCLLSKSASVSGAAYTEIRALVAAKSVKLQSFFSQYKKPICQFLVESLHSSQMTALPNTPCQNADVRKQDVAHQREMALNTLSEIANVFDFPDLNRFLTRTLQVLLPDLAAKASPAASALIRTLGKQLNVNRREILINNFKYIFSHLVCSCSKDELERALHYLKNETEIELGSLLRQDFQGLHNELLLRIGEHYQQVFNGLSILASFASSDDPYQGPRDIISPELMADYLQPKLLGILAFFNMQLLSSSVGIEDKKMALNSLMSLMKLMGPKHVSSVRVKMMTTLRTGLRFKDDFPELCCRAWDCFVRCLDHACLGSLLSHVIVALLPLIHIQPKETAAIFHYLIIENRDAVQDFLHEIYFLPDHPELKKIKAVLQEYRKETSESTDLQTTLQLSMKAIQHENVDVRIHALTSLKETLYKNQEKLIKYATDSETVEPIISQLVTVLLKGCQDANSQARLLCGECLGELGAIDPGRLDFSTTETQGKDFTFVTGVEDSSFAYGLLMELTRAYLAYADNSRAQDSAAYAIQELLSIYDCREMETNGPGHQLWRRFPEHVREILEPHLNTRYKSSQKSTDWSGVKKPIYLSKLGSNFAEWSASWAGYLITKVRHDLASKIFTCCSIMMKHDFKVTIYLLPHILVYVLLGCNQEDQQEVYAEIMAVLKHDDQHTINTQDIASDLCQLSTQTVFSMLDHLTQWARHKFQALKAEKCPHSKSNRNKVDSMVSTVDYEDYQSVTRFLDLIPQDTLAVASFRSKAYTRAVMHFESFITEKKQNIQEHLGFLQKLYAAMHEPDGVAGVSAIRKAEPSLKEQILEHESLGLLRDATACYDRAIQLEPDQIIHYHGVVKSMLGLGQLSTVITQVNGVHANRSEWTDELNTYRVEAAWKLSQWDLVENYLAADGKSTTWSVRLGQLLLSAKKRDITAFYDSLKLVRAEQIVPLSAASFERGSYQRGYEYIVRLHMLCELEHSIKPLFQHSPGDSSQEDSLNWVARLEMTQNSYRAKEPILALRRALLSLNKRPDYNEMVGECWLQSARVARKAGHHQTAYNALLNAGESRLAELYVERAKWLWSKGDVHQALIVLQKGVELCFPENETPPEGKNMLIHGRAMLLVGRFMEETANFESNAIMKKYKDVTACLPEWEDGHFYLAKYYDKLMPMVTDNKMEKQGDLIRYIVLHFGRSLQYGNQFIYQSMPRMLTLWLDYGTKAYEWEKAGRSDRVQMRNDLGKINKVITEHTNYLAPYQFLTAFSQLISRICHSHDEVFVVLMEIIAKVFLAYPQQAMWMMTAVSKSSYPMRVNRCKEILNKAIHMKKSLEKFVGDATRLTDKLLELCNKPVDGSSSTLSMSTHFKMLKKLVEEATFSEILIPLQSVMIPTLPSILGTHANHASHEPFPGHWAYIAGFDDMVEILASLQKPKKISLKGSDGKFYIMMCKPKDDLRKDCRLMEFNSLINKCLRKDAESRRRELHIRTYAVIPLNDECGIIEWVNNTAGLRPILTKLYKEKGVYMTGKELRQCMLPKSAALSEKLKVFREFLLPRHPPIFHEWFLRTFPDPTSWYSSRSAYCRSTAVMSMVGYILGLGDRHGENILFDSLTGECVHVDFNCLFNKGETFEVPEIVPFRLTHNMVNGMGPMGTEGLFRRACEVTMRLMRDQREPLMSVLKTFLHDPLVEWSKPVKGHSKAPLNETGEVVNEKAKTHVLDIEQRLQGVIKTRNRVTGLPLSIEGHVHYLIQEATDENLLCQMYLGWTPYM
Method: After the incubation, the beads were washed in 500 μl kinase buffer.
ATR kinase assay: ATR precipitates were incubated with 27.5 μl of kinase buffer+1 μl 32P γ-ATP (1 μCi)+1.5 μl GST-RAD17 substrate (1.5 μg) for exactly 15 min at 30° C. The reactions were stopped by adding 10 μl of 6×SDS sample buffer and boiling the sample for 8 min at 95° C.
The dried gel was either exposed overnight to Biomax film or in the phosphoimager cassette for several hours and quantified using the program Image Quant v1.2 from Molecular Dynamics, Sunnyvale, Calif. (USA). Curves were plotted in the program KaleidaGraph v3.5 (Synergy Software, Reading, Pa.) using the Hill equation. […]
After the kinase reactions were carried out, the samples were separated on a 5-12.5% gradient gel. […] Flag-ATR and labeling with biotin-wortmannin were detected by chemiluminescence using α-Flag M5 or streptavidin HRP antibody. The lower half of the gel was stained with coomassie, dried and analyzed by autoradiography.
Analysis of substrate phosphorylation by autoradiography allows evaluation of the kinase activity that remains after incubation with different amounts of biotin-wortmannin. […] In the lower lane, the amount of Flag-tagged ATR was determined by using a Flag specific antibody. This signal was used to normalize for equal loading to generate quantitative data. […]

[7] = molecular target: ATR (Homo sapiens, UniProt Q13535); conditions: Sarkaria et al., 1998; cited from earlier work
Sequence of ATR (Q13535 whole entry): as above

[8] = molecular target: mTOR (FRAP) (Homo sapiens, UniProt P42345); conditions: cited from earlier work

effect of pretreatment on pull-down of ATM with 30 μM biotin-wortmannin [1]: did not show an effect
effect of pretreatment on pull-down of DNA-PKcs with 30 μM biotin-wortmannin [2]: did not show an effect
Structure (SMILES): Nc1ncnc2c1ncn2[C@@H]1O[C@H](COP(=O)(O)OP(=O)(O)OP(=O)(O)O)[C@@H](O)[C@H]1O [ATP]

Structure (SMILES): COCC1OC(=O)c2coc3c2C1(C)C1=C(C3=O)C2CCC(=O)C2(C)CC1O (stereo not shown) [11-O-desacetyl wortmannin]
IC50 [3]: 16.7 nM
fold less effective than wortmannin towards PI 3-kinase [3]: 4 fold
fold less effective than wortmannin towards PI 3-kinase ([3]; listed as 0-11-desacetylwortmannin): about four

Structure (SMILES): COC[C@H]1OC(=O)c2coc3c2[C@@]1(C)C1=C(C3=O)[C@@H]2CCC(=O)[C@@]2(C)C[C@H]1OC(C)=O [wortmannin, Wortmannin]
capability to enter into intact cells [4]: capable to enter into intact cells
time in large part stable in buffer [5]: at least 30 min
IC50 [6]: 1800 nM
IC50 [7]: 1800 nM

Structure (SMILES): O=c1cc(N2CCOCC2)oc2c(-c3ccccc3)cccc12 [LY294002, 2-(4-morpholinyl)-S-phenyl-4H-1-benzopyran-4-one]
IC50 [8]: ~3000 nM
